# According to PubChem BioAssay AID1417 (Emory University Molecular Libraries Screening Center, 2008):
# pIC50: −log10 of the molar value.
# Biological target: Induced myeloid leukemia cell differentiation protein Mcl-1 (Homo sapiens) (UniProt Q07820)
# Experiment: Mcl-1 Noxa peptide disruption concentration-response – biochemical, TR-FRET, dose response (AID 1417)
# Details: Mcl-1/Noxa peptide interaction, cell-free TR-FRET (terbium/rhodamine), 2 h; measured here: absolute IC50
# Induced myeloid leukemia cell differentiation protein Mcl-1 (Homo sapiens), sequence (Q07820 whole entry, looked up): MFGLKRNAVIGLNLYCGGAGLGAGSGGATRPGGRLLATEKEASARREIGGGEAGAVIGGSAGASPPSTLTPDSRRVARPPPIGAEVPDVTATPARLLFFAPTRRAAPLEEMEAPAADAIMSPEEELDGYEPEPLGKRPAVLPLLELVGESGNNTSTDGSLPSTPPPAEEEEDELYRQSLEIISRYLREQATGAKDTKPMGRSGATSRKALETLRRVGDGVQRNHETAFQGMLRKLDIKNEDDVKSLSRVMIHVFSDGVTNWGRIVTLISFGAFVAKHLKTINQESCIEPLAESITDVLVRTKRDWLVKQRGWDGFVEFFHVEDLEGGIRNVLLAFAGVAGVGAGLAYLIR
row,Compound,pIC50
1,Cn1cnnc1SCC(=O)Nc1sc2c(c1C(N)=O)CCC2,5.74
2,COc1cc(/C=N/Nc2nc(C)nc3c2cnn3-c2ccccc2)ccc1O,4.88
3,O=C(CSc1nnc(COc2ccccc2Cl)o1)NC(=O)NCc1ccco1,5.07
4,Cc1ccc(NS(=O)(=O)c2cc([N+](=O)[O-])ccc2NNC(=S)Nc2cccc(Cl)c2)c(C)c1,< 4.27
5,Cc1ccc2c(c1)C1C=CCC1C(C(=O)O)N2 (configuration not stated),> 6.40
6,CCC1=NN2C(=N)/C(=C\c3ccc(OCc4cc(=O)n5nc(CC)sc5n4)c(OC)c3)C(=O)N=C2S1,5.64
7,Fc1cccc(NC(=S)NNc2c3ccccc3nc3ccccc23)c1,5.48
8,CCSc1ncc(/C=N/Nc2ccc([N+](=O)[O-])cc2)n1C,5.67
9,Cc1ccccc1/C=N/Nc1ccnc2cc(Cl)ccc12,5.18
10,O=C1C(Cl)=C(Nc2ccc3cn[nH]c3c2)C(=O)c2ccccc21,> 6.40
11,COc1cccc2c(=S)c(CCC(C)=O)c(C)[nH]c12,6.14
12,COc1ccccc1C1=Nc2cccc3cccc(c23)N1,< 4.27
13,Cc1nc(S/C(=C\c2ccc(-c3ccc(C(=O)O)c(Cl)c3)o2)C(=O)O)n[nH]1,> 6.40
14,C(=C\c1ccco1)/c1ccc2ccccc2n1,5.38
15,Oc1cc2c(cc1C(c1ccc(Cl)c(Cl)c1)N1CCCC1)OCO2 (configuration not stated),< 4.27
16,O=C1C(=Cc2ccc(Br)o2)C(=O)c2ccccc21,> 6.40
17,COc1ccc(N2CCC(CNC(=O)Nc3ccc(C)c(C)c3)C2)cc1 (configuration not stated),< 4.27
18,Cc1nc(NC(=O)c2ccco2)sc1-c1csc(Nc2ccc(Cl)cc2Cl)n1,5.91
19,CC(C)n1c(Nn2cnnc2)nc2ccccc21,< 4.27
20,COc1cc(C(=O)Nc2ccc(N(C)C)cc2)cc(OC)c1OC,< 4.27
21,O=[N+]([O-])c1c(NCCO)cc(Sc2nc3ccccc3s2)c2nonc12,< 4.27
22,Cc1cccc(/N=C/c2sc3ccccc3c2O)n1,6.12
23,O=C1NC(=S)N/C1=C/c1ccc(-c2c(Br)cc([N+](=O)[O-])cc2Br)o1,5.84
24,CCc1c(C)[nH]c2ccc(OC)cc2c1=S,> 6.40

row,Compound,pIC50
1,Cc1ccc(-n2nc3cc(C)c(N)cc3n2)cc1,> 6.40
2,CCOC(=O)c1c(-c2ccc(C)cc2)csc1NC(=O)/C(C#N)=C/c1ccc(O)c(OC)c1,> 6.40
3,O=c1c(O)cccc2cc(O)c(O)c(O)c12,> 6.40
4,CSc1ccc(/C=N/Nc2cccc(C(=O)O)c2)cc1,6.05
5,CCCOc1ccc(Cc2nn3c(=O)/c(=C/c4ccco4)sc3nc2=O)cc1,< 4.27
6,O=C(O)c1cccc(-n2cccc2/C=C2/NC(=O)N(c3ccc(Cl)cc3)C2=O)c1,> 6.40
7,FC(F)(F)C1=CC(c2ccccc2)=NCCN1,< 4.27
8,CCCOc1ncnc2c1[nH]c1ccccc12,< 4.27
9,Cc1cc(N=Cc2c(O)ccc3cc(Br)ccc23)no1,4.27
10,O=S(=O)(Cc1cc(Cl)nc(-c2ccncc2)n1)c1ccccc1,4.61
11,O=C(ONc1ccc(N=NC(=O)c2ccccc2O)cc1)c1ccccc1,4.89
12,Cc1cccc(NC2=C(NC(=O)c3ccccc3)C(=O)c3ccccc3C2=O)c1,5.47
13,CC(=O)c1ccc(NC(=O)CC2Nc3cccc4cccc(c34)NC2=O)cc1 (configuration not stated),5.44
14,COC(=O)c1ccc(CSc2nc(-c3ccccc3)cs2)o1,< 4.27
15,CS(=O)(=O)C1=NSC2=NC(=O)/C(=C\c3cccn3-c3ccc(Cl)cc3)C(=N)N21,5.43
16,CNCc1ccccc1OCc1ccccc1F,5.28
17,O=C1NC(=Nc2ccccc2)S/C1=C\C=C\c1ccco1,> 6.40
18,Cc1cc(SCC(=O)N/N=C/c2ccc(O)c(O)c2O)c(C)cc1Br,> 6.40
19,O=C(Nc1ccc(S(=O)(=O)Nc2nccs2)cc1)c1cc(-c2ccncc2)nc2ccccc12,> 6.40
20,COc1cc2c(ccc3cc(OC)c(OC)c(O)c32)cc1O,> 6.40
21,O=C(N/N=C/c1ccc(O)cc1)c1cccc(N/N=C/c2ccc(O)cc2)c1,5.69
22,O=C(Cc1ccc(S(=O)(=O)N2CCOCC2)s1)Nc1nc2c(s1)CCCC2,5.29
23,O=C1/C(=C/C=C/c2ccco2)SC(=S)N1NS(=O)(=O)c1ccccc1,5.85
